pIC50: −log10 of the molar value.
Test system: Plasmodium berghei
Test: Luciferase/luciferin-expressing antifolate-resistant parasites were used to infect a culture of HepG2 cells that were pre-incubated with compounds. Infected hepatocytes emit light due to the luciferase reaction. Assay results are presented as the percent inhibition of light emission compared to control. […]
Format: functional
Details: sporozoite; for IC90: read-out: LUCIFERASE INFECTION ASSAY - IC90
[1] = read-out: LUCIFERASE INFECTION ASSAY - IC50

Row | Compound | IC90 | also measured
1 | Cc1ccc(C(C)C)c(OCC(=O)Nc2ccc(I)c(C)n2)c1 | > 10 µM | pIC50 (FFLUC_HILL_SLOPE 2.58, FFLUC_R_SQUARED 0.455, read-out: LUCIFERASE INFECTION ASSAY - IC50): < 5.00
2 | CCOc1cc2ncc(C#N)c(Nc3ccc(F)c(Cl)c3)c2cc1N | 6.3 µM | pIC50 (HEPG2TOX_HILL_SLOPE 1.25, HEPG2TOX_R_SQUARED 0.941, PBLUC_HILL_SLOPE 3.96, PBLUC_R_SQUARED 0.532, read-out: LUCIFERASE INFECTION ASSAY - IC50): 5.44
3 | O=C(Cn1nc(-c2ccco2)oc1=O)N(Cc1ccccc1)c1ccccc1 | > 10 µM | pIC50 [1]: < 5.00
4 | COc1cc(CCC2CCN(c3ccc4nnc(C(F)(F)F)n4n3)CC2)cc(OC)c1 | > 10 µM | pIC50 (PBLUC_HILL_SLOPE 2.86, PBLUC_R_SQUARED 0.563, read-out: LUCIFERASE INFECTION ASSAY - IC50): 5.23
5 | CCCn1c(N)c(N2CCCCC2)c(=O)n(Cc2nc(N)nc(Nc3ccccc3)n2)c1=O | 3.51 µM | pIC50 [1]: 5.66
6 | COc1ccc(-c2cnc3cnc(-c4cccc(C(=O)NCCO)c4)cn23)cc1 | 8.22 µM | pIC50 (PBLUC_HILL_SLOPE 19.3, PBLUC_R_SQUARED 0.197, read-out: LUCIFERASE INFECTION ASSAY - IC50): 5.13
7 | Cn1c(-c2cncc(C#Cc3ccccc3)c2)n[nH]c1=S | > 11.3 µM | pIC50 [1]: < 4.95
8 | Cc1nc2ccccc2n1CCC(=O)Nc1cccc(C(F)(F)F)c1 | 8.78 µM | pIC50 (PBLUC_HILL_SLOPE 3.83, PBLUC_R_SQUARED 0.29, read-out: LUCIFERASE INFECTION ASSAY - IC50): 5.31
9 | Cc1cc(Oc2c(C)cccc2C)c2ccccc2n1 | > 12.5 µM | pIC50 (PBLUC_HILL_SLOPE 0.514, PBLUC_R_SQUARED 0.0638, read-out: LUCIFERASE INFECTION ASSAY - IC50): < 4.90
10 | Cc1ccc(S(=O)(=O)N2CCN(CC(=O)N3N=C4/C(=C/c5cccs5)CCCC4C3c3cccs3)CC2)cc1 (centres undefined) | 4.41 µM | pIC50 (HEPG2TOX_HILL_SLOPE 6.4, HEPG2TOX_R_SQUARED 0.688, PBLUC_HILL_SLOPE 11.3, PBLUC_R_SQUARED 0.553, read-out: LUCIFERASE INFECTION ASSAY - IC50): 5.44
11 | CC(=O)Nc1ccccc1OS(=O)(=O)c1ccc(N2CCCC2=O)cc1 | 1.38 µM | pIC50 (HEPG2TOX_HILL_SLOPE 1.61, HEPG2TOX_R_SQUARED 0.866, PBLUC_HILL_SLOPE 5.07, PBLUC_R_SQUARED 0.799, read-out: LUCIFERASE INFECTION ASSAY - IC50): 6.05
12 | COc1cc(OC)cc(C(=O)N(Cc2ccccc2)c2nc(-c3ccc(Cl)cc3Cl)cs2)c1 | > 10 µM | pIC50 [1]: < 5.00
13 | CCOC(=O)c1cc(C#N)c(Sc2n[nH]c(=O)n2Cc2ccc(C(F)(F)F)cc2)nc1C | > 7.12 µM | pIC50 (FFLUC_HILL_SLOPE 26.6, FFLUC_R_SQUARED 0.376, read-out: LUCIFERASE INFECTION ASSAY - IC50): < 5.15
14 | O=C(Nc1cc(Cl)cc(Cl)c1)OCc1ccc(Oc2ccccc2)c([N+](=O)[O-])c1 | > 7.62 µM | pIC50 [1]: < 5.12
15 | CCCCn1nc(C)c(/C=C/C(=O)N(CC)CC(=O)NCc2ccc(F)cc2)c1Cl | > 10 µM | pIC50 (HEPG2TOX_HILL_SLOPE 2.05, HEPG2TOX_R_SQUARED 0.946, PBLUC_HILL_SLOPE 2.58, PBLUC_R_SQUARED 0.346, read-out: LUCIFERASE INFECTION ASSAY - IC50): 5.17
16 | O=C(Cc1csc(-c2ccccc2Cl)n1)Nc1cnc2ccccc2c1 | > 10 µM | pIC50 (HEPG2TOX_HILL_SLOPE 0.041, HEPG2TOX_R_SQUARED 0.0816, read-out: LUCIFERASE INFECTION ASSAY - IC50): < 5.00
17 | Cc1c2cnn(C)c(=O)c2c(C)n1-c1ccccc1 | > 13 µM | pIC50 [1]: < 4.89
18 | COc1ccc(C(CNC(=O)c2ccccc2-c2ncc(-c3ccccc3)o2)N(C)C)cc1 (centres undefined) | > 10 µM | pIC50 (PBLUC_HILL_SLOPE 2.7, PBLUC_R_SQUARED 0.455, read-out: LUCIFERASE INFECTION ASSAY - IC50): 5.28
19 | Fc1ccc2c(c1)C(Nc1nc(-c3cccnc3)nc3ccccc13)CCS2 (centres undefined) | 4.27 µM | pIC50 (FFLUC_HILL_SLOPE 1.8, FFLUC_R_SQUARED 0.403, PBLUC_HILL_SLOPE 13.2, PBLUC_R_SQUARED 0.43, read-out: LUCIFERASE INFECTION ASSAY - IC50): 5.44
20 | CN1/C(=C\C(=O)CSc2nc(N)c3ccsc3n2)C(C)(C)c2ccccc21 | > 10 µM | pIC50 (PBLUC_HILL_SLOPE 1.96, PBLUC_R_SQUARED 0.352, read-out: LUCIFERASE INFECTION ASSAY - IC50): 5.08
21 | CCOc1cccc2c(C)nc(Nc3nc(=O)c4ccccc4[nH]3)nc12 | 7.27 µM | pIC50 (HEPG2TOX_HILL_SLOPE 3.19, HEPG2TOX_R_SQUARED 0.9, PBLUC_HILL_SLOPE 4.13, PBLUC_R_SQUARED 0.554, read-out: LUCIFERASE INFECTION ASSAY - IC50): 5.37
22 | Cc1ccc(NC(=O)c2cnn(C(C)(C)C)c2C)cc1F | 6.02 µM | pIC50 (FFLUC_HILL_SLOPE 1.31, FFLUC_R_SQUARED 0.708, PBLUC_HILL_SLOPE 0.501, PBLUC_R_SQUARED 0.734, read-out: LUCIFERASE INFECTION ASSAY - IC50): 7.12

Source: ChEMBL document CHEMBL4483862, “Open-source discovery of chemical leads for next-generation chemoprotective antimalarials” (2018)
